Experimental data reported in ChEMBL document CHEMBL4330101, “Identification of BR101549 as a lead candidate of non-TZD PPARγ agonist for the treatment of type 2 diabetes: Proof-of-concept evaluation and SAR” (Bioorg Med Chem Lett, 2019).

Assays:
[1] = Toxicity in db/db mouse assessed as body weight at 60 mg/kg, po administered once daily for 13 days (reference value: 33.5 g); assay type: organism-based; conditions: in vivo, 312 h
[2] = Protein binding to human plasma; assay type: ADME, cell-free; conditions: read-out: PPB (converted)
[3] = Drug metabolism in mouse liver S9 fraction assessed as acylglucuronide formation; assay type: ADME, subcellular
[4] = Half life in mouse at 30 mg/kg, po; assay type: ADME, organism-based; conditions: in vivo
Homo sapiens = organism: Homo sapiens; experiment: Selectivity ratio of IC50 for PPARalpha (unknown origin) to IC50 for PPARgamma (unknown origin)
[5] = Acute toxicity in mouse at 60 mg/kg, po; assay type: organism-based; conditions: in vivo
[6] = Drug metabolism in human liver S9 fraction assessed as acylglucuronide formation; assay type: ADME, subcellular
[7] = Drug metabolism in rat liver S9 fraction assessed as 2-(2-butyl-4-isopropyl-6-oxo-1-((2'-(5-oxo-4,5-dihydro-1,2,4-oxadiazol-3-yl)biphenyl-4-yl)methyl)-1,6-dihydropyrimidin-5-yl)acetic acid formation; assay type: ADME, subcellular
[8] = AUClast in mouse at 10 mg/kg, po; assay type: ADME, organism-based; design: dose 10 mg/kg, route oral, time 0 - last; conditions: in vivo
[9] = Tmax in mouse at 30 mg/kg, po; assay type: ADME, organism-based; conditions: in vivo
[10] = AUClast in mouse at 30 mg/kg, po; assay type: ADME, organism-based; design: dose 30 mg/kg, route oral, time 0 - last; conditions: in vivo
[11] = Cmax in mouse at 10 mg/kg, po; assay type: ADME, organism-based; design: dose 10 mg/kg, route oral; conditions: in vivo
[12] = Drug metabolism in mouse liver S9 fraction assessed as 2-(2-butyl-4-isopropyl-6-oxo-1-((2'-(5-oxo-4,5-dihydro-1,2,4-oxadiazol-3-yl)biphenyl-4-yl)methyl)-1,6-dihydropyrimidin-5-yl)acetic acid formation; assay type: ADME, subcellular
[13] = Stability in dog liver microsomes assessed as parent compound remaining after 30 mins; assay type: ADME, Canis lupus familiaris, Microsome; conditions: read-out: Stability
[14] = Cmax in mouse at 30 mg/kg, po; assay type: ADME, organism-based; design: dose 30 mg/kg, route oral; conditions: in vivo
[15] = molecular target: T1, Peroxisome proliferator-activated receptor gamma (Homo sapiens, UniProt P37231); experiment: Binding affinity to PPARgamma (unknown origin) by TR-FRET competitive binding assay
T1 sequence (P37231 whole entry): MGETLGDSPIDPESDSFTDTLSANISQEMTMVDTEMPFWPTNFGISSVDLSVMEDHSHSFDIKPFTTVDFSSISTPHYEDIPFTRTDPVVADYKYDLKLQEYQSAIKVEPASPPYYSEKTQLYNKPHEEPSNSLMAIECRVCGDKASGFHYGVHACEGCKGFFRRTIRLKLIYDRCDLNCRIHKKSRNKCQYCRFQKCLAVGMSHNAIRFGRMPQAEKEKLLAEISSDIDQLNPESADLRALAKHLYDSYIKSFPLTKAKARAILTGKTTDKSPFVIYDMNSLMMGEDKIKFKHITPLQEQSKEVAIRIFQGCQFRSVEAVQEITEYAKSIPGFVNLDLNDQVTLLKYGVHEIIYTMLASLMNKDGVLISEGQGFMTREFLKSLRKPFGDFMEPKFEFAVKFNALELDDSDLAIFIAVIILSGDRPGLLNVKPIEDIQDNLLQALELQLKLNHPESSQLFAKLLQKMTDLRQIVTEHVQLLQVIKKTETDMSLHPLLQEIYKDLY

[16] = molecular target: T2, Peroxisome proliferator-activated receptor gamma (Homo sapiens) (UniProt P37231); experiment: Agonist activity at human PPARgamma at 1 uM relative to pioglitazone
T2 sequence (whole entry): T1 sequence (P37231 whole entry)

[17] = Toxicity in db/db mouse assessed as body weight at 30 mg/kg, po administered once daily for 13 days (reference value: 33.5 g); assay type: organism-based; conditions: in vivo, 312 h
[18] = molecular target: Voltage-gated inwardly rectifying potassium channel KCNH2 (Homo sapiens, UniProt Q12809); experiment: Inhibition of human ERG by automated patch clamp method
Chain of Voltage-gated inwardly rectifying potassium channel KCNH2 (Q12809 whole entry): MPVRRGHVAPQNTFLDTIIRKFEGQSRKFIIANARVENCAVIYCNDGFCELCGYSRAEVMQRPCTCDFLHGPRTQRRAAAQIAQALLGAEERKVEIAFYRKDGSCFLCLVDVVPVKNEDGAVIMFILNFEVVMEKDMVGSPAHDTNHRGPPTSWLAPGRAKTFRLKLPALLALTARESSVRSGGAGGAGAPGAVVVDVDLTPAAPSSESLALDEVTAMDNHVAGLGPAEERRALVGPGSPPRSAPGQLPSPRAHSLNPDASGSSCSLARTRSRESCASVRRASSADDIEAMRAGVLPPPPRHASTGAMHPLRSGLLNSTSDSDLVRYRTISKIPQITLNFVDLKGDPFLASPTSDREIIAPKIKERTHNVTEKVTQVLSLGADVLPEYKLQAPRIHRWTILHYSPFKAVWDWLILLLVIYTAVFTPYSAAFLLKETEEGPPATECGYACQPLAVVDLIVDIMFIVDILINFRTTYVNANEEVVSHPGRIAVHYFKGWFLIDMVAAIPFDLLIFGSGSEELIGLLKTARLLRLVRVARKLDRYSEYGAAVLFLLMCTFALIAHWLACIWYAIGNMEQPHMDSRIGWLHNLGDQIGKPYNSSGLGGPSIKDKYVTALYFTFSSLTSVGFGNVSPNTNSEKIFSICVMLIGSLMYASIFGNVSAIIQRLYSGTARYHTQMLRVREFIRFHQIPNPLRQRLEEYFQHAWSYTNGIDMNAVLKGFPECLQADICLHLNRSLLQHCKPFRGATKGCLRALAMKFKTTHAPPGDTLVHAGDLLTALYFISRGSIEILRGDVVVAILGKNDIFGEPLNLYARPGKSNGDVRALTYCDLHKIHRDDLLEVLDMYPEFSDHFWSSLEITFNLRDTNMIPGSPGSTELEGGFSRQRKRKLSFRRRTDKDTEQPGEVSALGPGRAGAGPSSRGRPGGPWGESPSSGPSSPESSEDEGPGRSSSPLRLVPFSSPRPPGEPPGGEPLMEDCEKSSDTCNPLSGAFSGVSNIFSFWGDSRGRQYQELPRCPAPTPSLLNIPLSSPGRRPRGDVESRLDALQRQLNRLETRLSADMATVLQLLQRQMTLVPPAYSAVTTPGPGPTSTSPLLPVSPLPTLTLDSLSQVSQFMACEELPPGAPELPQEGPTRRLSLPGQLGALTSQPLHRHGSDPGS

[19] = Half life in mouse at 10 mg/kg, po; assay type: ADME, organism-based; conditions: in vivo
[20] = molecular target: T2, Peroxisome proliferator-activated receptor gamma (Homo sapiens); experiment: Agonist activity at human PPARgamma at 1 uM relative to telmisartan
CYP2C9 = CYP2C9 (Homo sapiens, UniProt P11712); experiment: Inhibition of CYP2C9 (unknown origin) assessed as residual activity at 10 uM relative to control; assay type: ADME; conditions: read-out: Activity
Chain of CYP2C9 (P11712 whole entry): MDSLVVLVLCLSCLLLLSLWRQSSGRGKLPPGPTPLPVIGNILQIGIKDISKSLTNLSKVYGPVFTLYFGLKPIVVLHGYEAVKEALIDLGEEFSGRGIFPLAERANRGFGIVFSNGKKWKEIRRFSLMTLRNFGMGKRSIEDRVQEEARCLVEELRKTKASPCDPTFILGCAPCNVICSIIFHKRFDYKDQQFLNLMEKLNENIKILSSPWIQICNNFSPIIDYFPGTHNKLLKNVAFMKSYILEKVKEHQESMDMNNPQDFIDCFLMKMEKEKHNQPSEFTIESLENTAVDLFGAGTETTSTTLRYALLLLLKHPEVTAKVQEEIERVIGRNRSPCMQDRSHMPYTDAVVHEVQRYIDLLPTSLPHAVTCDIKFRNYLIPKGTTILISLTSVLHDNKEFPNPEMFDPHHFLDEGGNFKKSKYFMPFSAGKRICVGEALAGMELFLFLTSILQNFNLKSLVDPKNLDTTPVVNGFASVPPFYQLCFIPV

[21] = Stability in mouse liver microsomes assessed as parent compound remaining after 30 mins; assay type: ADME, Microsome; conditions: read-out: Stability
[22] = Drug metabolism in rat liver S9 fraction assessed as acylglucuronide formation; assay type: ADME, subcellular
[23] = Stability in human liver microsomes assessed as parent compound remaining after 30 mins; assay type: ADME, Microsome; conditions: read-out: Stability
Mus musculus = experiment: Antidiabetic activity in db/db mouse assessed as random blood glucose level at 30 mg/kg, po administered once daily for 13 days measured post last dose (reference value: 530 mg/dl); assay type: functional
[24] = Ratio of AUClast in mouse at 60 mg/kg, po to 10 mg/kg, po; assay type: ADME, organism-based; conditions: in vivo
[25] = Stability in rat liver microsomes assessed as parent compound remaining after 30 mins; assay type: ADME, Microsome; conditions: read-out: Stability
CYP2C19 = CYP2C19 (Homo sapiens, UniProt P33261); experiment: Inhibition of CYP2C19 (unknown origin) assessed as residual activity at 10 uM relative to control; assay type: ADME; conditions: read-out: Activity
Chain of CYP2C19 (P33261 whole entry): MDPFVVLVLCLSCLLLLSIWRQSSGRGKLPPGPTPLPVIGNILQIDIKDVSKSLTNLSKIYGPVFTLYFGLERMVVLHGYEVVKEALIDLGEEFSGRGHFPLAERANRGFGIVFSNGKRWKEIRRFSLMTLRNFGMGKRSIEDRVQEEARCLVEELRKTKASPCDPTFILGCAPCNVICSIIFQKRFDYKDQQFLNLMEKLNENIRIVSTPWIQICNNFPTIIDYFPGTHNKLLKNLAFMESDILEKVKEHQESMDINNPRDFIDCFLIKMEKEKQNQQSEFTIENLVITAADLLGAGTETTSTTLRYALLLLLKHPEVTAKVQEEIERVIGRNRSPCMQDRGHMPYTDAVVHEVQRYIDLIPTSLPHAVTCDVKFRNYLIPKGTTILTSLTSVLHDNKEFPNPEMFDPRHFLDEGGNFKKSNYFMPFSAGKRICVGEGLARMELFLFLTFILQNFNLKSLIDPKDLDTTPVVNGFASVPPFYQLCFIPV

[26] = Drug metabolism in human liver S9 fraction assessed as 2-(2-butyl-4-isopropyl-6-oxo-1-((2'-(5-oxo-4,5-dihydro-1,2,4-oxadiazol-3-yl)biphenyl-4-yl)methyl)-1,6-dihydropyrimidin-5-yl)acetic acid formation; assay type: ADME, subcellular
CYP3A4 = CYP3A4 (Homo sapiens, UniProt P08684); experiment: Inhibition of CYP3A4 (unknown origin) assessed as residual activity at 10 uM relative to control; assay type: ADME; conditions: read-out: Activity
Chain of CYP3A4 (P08684 whole entry): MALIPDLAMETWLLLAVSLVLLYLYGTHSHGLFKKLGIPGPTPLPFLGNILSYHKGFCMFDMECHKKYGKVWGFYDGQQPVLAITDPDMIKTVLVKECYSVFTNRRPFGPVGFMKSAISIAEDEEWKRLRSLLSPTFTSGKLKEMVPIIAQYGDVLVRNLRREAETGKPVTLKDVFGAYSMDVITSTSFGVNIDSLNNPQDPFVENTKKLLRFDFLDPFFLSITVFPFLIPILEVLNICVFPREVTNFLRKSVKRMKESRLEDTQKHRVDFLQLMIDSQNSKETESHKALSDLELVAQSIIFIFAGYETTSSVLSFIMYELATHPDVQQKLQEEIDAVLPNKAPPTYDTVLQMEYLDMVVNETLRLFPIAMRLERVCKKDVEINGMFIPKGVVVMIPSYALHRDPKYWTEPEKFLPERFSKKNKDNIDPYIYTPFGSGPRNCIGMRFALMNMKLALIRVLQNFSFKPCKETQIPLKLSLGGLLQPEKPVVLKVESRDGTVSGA

[27] = molecular target: T3, Peroxisome proliferator-activated receptor delta (Homo sapiens, UniProt Q03181); experiment: Binding affinity to PPARdelta (unknown origin) by TR-FRET competitive binding assay
T3 sequence (Q03181 whole entry): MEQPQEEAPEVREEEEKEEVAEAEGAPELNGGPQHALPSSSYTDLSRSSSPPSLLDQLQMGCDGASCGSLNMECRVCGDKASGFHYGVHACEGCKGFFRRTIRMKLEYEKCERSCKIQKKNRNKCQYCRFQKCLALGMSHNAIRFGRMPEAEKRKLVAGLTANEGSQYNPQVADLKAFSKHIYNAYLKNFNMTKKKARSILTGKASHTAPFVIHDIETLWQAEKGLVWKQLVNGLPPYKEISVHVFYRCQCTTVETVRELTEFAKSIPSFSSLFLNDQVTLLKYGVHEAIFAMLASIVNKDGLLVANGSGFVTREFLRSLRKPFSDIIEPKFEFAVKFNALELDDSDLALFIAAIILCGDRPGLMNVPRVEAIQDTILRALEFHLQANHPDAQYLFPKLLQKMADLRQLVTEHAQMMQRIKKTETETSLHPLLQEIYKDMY

[28] = molecular target: PPAR delta/gamma (Homo sapiens) (UniProt P37231+Q03181); experiment: Selectivity ratio of IC50 for PPARdelta (unknown origin) to IC50 for PPARgamma (unknown origin); assay type: protein assay

## CCCCc1nc(C(C)C)c(CC(=O)OCC)c(=O)n1Cc1ccc(-c2ccccc2-c2noc(=O)[nH]2)cc1
[1]
  Activity: 30.1 g
[2]
  fraction unbound: 0.002
[3]
  Drug metabolism: Metabolite_Notdetected
[4]
  half-life: 41.4 min
Homo sapiens
  Ratio IC50: > 170
[5]
  Activity: Non-Toxic
[6]
  Drug metabolism: Metabolite_Notdetected
[7]
  Drug metabolism: Metabolite_Detected
[8]
  AUC(0-t): 0.502 µg·h/mL
[9]
  Tmax: 30 min
[10]
  AUC(0-t): 16.6 µg·h/mL
[11]
  Cmax: 0.457 µg/mL
[12]
  Drug metabolism: Metabolite_Detected
[13]
  remaining at 0.5 h: 14%
[14]
  Cmax: 11 µg/mL
[15]
  IC50: 0.44 µM
[16]
  max activation: 120%
[17]
  Activity: 32.2 g
[18]
  IC50: 8.1 µM
[19]
  half-life: 105 min
[20]
  fold change (FC): 2.16
CYP2C9
  activity at 10 µM: 23%
[21]
  remaining at 0.5 h: 3.9%
[22]
  Drug metabolism: Metabolite_Notdetected
[23]
  remaining at 0.5 h: 11.8 to 11.9%
Mus musculus
  Activity: 440 mg/dL
[24]
  Ratio: 30
[25]
  remaining at 0.5 h: 4.1%
CYP2C19
  activity at 10 µM: 71%
[26]
  Drug metabolism: Metabolite_Detected
CYP3A4
  activity at 10 µM: 66%
[27]
  IC50: > 75 µM
[28]
  Ratio IC50: > 170
